Experimental data from patent publication US10448639B2, “Fungicidal pyrazoles” (FMC CORPORATION, priority 2009, dated 2019).
Like-named read-outs stand apart in the source and are kept apart here. Marks after values point to notes of the source that are not given here.

Assays:
[1] = test system: Puccinia recondita f. sp. tritici; assay: Test I: wheat leaf rust, preventive spray on wheat seedlings, visual disease rating; settings: for Test I disease control rating: sprayed the day before inoculation, 0 = no disease control relative to controls; for Test I disease control rating / Test I rating (% disease control): 100 = 100% disease control; for pest or weed control at 200 µg/mL: 192 h; for Test I rating (% disease control): preventive spray, 0 = no control
Alternaria solani = assay: Test C: tomato early blight, preventive spray on tomato seedlings, visual disease rating; settings: for Test C disease control rating / Test C rating (% disease control): 100 = 100% disease control; for Test C disease control rating: 0 = no disease control relative to controls; for pest or weed control at 200 µg/mL: Alternaria solani, in Solanum lycopersicum, 168 h; for Test C rating (% disease control): preventive spray, 0 = no control
[2] = test system: Erysiphe graminis f sp. tritici; assay: Test J: wheat powdery mildew, preventive spray on wheat seedlings, visual disease rating; settings: for Test J disease control rating: sprayed the day before inoculation, 0 = no disease control relative to controls; for Test J disease control rating / Test J rating (% disease control): 100 = 100% disease control; for pest or weed control at 200 µg/mL: Blumeria graminis, in Triticum aestivum, 192 h; for Test J rating (% disease control): preventive spray, 0 = no control
Botrytis cinerea = assay: Test B: tomato Botrytis, preventive spray on tomato seedlings, visual disease rating; settings: for Test B disease control rating / Test B rating (% disease control): 100 = 100% disease control; for Test B disease control rating: 0 = no disease control relative to controls; for pest or weed control at 200 µg/mL: Botrytis cinerea, in Solanum lycopersicum, 120 h; for Test B rating (% disease control): preventive spray, 0 = no control
[3] = test system: Puccinia recondita f. sp. tritici; assay: Test H: wheat leaf rust, curative spray on inoculated wheat seedlings, visual disease rating; settings: for Test H disease control rating: sprayed after inoculation, 100 = 100% disease control, 0 = no disease control relative to controls; for pest or weed control at 200 µg/mL: 144 h
Septoria nodorum = assay: Test F: Septoria glume blotch, preventive spray on wheat seedlings, visual disease rating; settings: for Test F disease control rating / Test F rating (% disease control): Septoria glume blotch on wheat, 100 = 100% disease control; for Test F disease control rating: 0 = no disease control relative to controls; for pest or weed control at 200 µg/mL: Parastagonospora nodorum, in Triticum aestivum, 192 h; for Test F rating (% disease control): preventive spray, 0 = no control
Septoria tritici = assay: Test G: wheat leaf blotch, preventive spray on wheat seedlings, visual disease rating; settings: wheat leaf blotch, preventive spray; 100 = 100% disease control, 0 = no control
Source text: General protocol for preparing test suspensions for Tests A-J: the test compounds were first dissolved in acetone in an amount equal to 3% of the final volume and then suspended at the desired concentration (in ppm) in acetone and purified water (50/50 mix by volume) containing 250 ppm of the surfactant Trem® 014 (polyhydric alcohol esters). The resulting test suspensions were then used in Tests A-J. Spraying a 200 ppm test suspension to the point of run-off on the test plants was the equivalent of a rate of 500 g/ha. Unless otherwise indicated, the rating values indicate a 200 ppm test suspension was used. (An asterisk “*” next to the rating value indicates a 40 ppm test suspension was used.)
The test suspension was sprayed to the point of run-off on wheat seedlings. The following day the seedlings were inoculated with a spore suspension of Septoria tritici (the causal agent of wheat leaf blotch) and incubated in saturated atmosphere at 24° C. for 48 h. and then the seedlings were moved to a growth chamber at 20° C. for 19 additional days, after which time visual disease ratings were made.

[4] = read-out: Test I disease control rating
[5] = read-out: Test C disease control rating
[6] = read-out: Test J disease control rating
[7] = read-out: Test B disease control rating
[8] = read-out: Test H disease control rating
[9] = read-out: Test F disease control rating

Compound: Cc1nn(C)c(C(O)c2ccc(F)cc2)c1-c1ccc(F)cc1Cl (racemic) [compound 350]
- Test I disease control rating ([1]; wheat leaf rust): 96%
- Test C disease control rating (Alternaria solani; tomato early blight): 9%
- Test J disease control rating ([2]; wheat powdery mildew): 0%
- Test B disease control rating (Botrytis cinerea; tomato Botrytis): 99%
- Test H disease control rating ([3]; wheat leaf rust): 9%
- Test F disease control rating (Septoria nodorum): 0%

Compound: Cc1nn(C)c(C(O)c2c(F)ccc(F)c2F)c1-c1ccc(F)cc1Cl (racemic) [compound 356]
- Test I disease control rating ([1]; wheat leaf rust): 100%
- Test C disease control rating (Alternaria solani; tomato early blight): 0%
- Test J disease control rating ([2]; wheat powdery mildew): 0%
- Test B disease control rating (Botrytis cinerea; tomato Botrytis): 100%
- Test H disease control rating ([3]; wheat leaf rust): 100%
- Test F disease control rating (Septoria nodorum): 0%

Compound: Cc1nn(C)c(Oc2ccc(C#N)cc2F)c1-c1ccc(F)cc1Br [Compound 284, 4-[[4-(2-bromo-4-fluorophenyl)-1,3-dimethyl-1H-pyrazol-5-yl]oxy]-3-fluorobenzonitrile]
- pest or weed control at 200 µg/mL ([1]; read-out: Test I rating (% disease control)): 100%
- pest or weed control at 200 µg/mL (Alternaria solani; read-out: Test C rating (% disease control)): 99%
- pest or weed control at 200 µg/mL ([2]; read-out: Test J rating (% disease control)): 100%
- pest or weed control at 200 µg/mL (Botrytis cinerea; read-out: Test B rating (% disease control)): 99%
- pest or weed control at 200 µg/mL ([3]; read-out: Test H rating (% disease control)): 28%
- pest or weed control at 200 µg/mL (Septoria nodorum; read-out: Test F rating (% disease control)): 100%

Compound: Cc1nn(C)c(Nc2c(F)cc(Cl)cc2F)c1-c1ccc(F)cc1Cl [Compound 286, N-(4-chloro-2,6-difluorophenyl)-4-(2-chloro-4-fluorophenyl)-1,3-dimethyl-1H-pyrazole-5-amine]
- Test I rating (% disease control), marked * ([1]; wheat leaf rust, preventive, rating marked with asterisk (*), meaning not given): 100* %
- Test C rating (% disease control), marked * (Alternaria solani; tomato early blight, rating marked with asterisk (*), meaning not given): 85* %
- Test J rating (% disease control), marked * ([2]; wheat powdery mildew, rating marked with asterisk (*), meaning not given): 100* %
- Test B rating (% disease control), marked * (Botrytis cinerea; tomato Botrytis, rating marked with asterisk (*), meaning not given): 98* %
- Test H rating (% disease control), marked * ([3]; wheat leaf rust, curative, rating marked with asterisk (*), meaning not given): 100* %
- Test F rating (% disease control), marked * (Septoria nodorum; Septoria glume blotch, rating marked with asterisk (*), meaning not given): 60* %

Compound: Cc1nn(C)c(C(O)c2ccc(F)cc2F)c1-c1ccc(F)cc1Cl (stereo not drawn) [Compound 351, 4-(2-chloro-4-fluorophenyl)-α-(2,4-difluorophenyl)-1,3-dimethyl-1H-pyrazole-5-methanol]
- pest or weed control at 200 µg/mL [1, 4]: 100%
- pest or weed control at 200 µg/mL (Alternaria solani; [5]): 99%
- pest or weed control at 200 µg/mL [2, 6]: 99%
- pest or weed control at 200 µg/mL (Botrytis cinerea; [7]): 100%
- pest or weed control at 200 µg/mL [3, 8]: 96%
- pest or weed control at 200 µg/mL (Septoria nodorum; [9]): 92%

Compound: Cc1nn(C)c(Nc2c(F)cc(Cl)cc2Cl)c1-c1ccc(F)cc1Cl [Compound 367, 4-(2-chloro-4-fluorophenyl)-N-(2,4-dichloro-6-fluorophenyl)-1,3-dimethyl-1H-pyrazol-5-amine]
- pest or weed control at 200 µg/mL [1, 4]: 100%
- pest or weed control at 200 µg/mL (Alternaria solani; [5]): 100%
- pest or weed control at 200 µg/mL [2, 6]: 100%
- pest or weed control at 200 µg/mL (Botrytis cinerea; [7]): 100%
- pest or weed control at 200 µg/mL [3, 8]: 100%
- pest or weed control at 200 µg/mL (Septoria nodorum; [9]): 100%

Compound: Cc1nn(C)c(Nc2c(Cl)cc(F)cc2Cl)c1-c1ccc(F)cc1Cl [Compound 369, 4-(2-chloro-4-fluorophenyl)-N-(2,6-dichloro-4-fluorophenyl)-1,3-dimethyl-1H-pyrazol-5-amine]
- pest or weed control at 200 µg/mL [1, 4]: 100%
- pest or weed control at 200 µg/mL (Alternaria solani; [5]): 66%
- pest or weed control at 200 µg/mL [2, 6]: 99%
- pest or weed control at 200 µg/mL (Botrytis cinerea; [7]): 100%
- pest or weed control at 200 µg/mL [3, 8]: 17%
- pest or weed control at 200 µg/mL (Septoria nodorum; [9]): 0%

Compound: Cc1nn(C)c(Nc2ccc(Cl)c(F)c2)c1-c1c(F)cc(F)cc1F [compound 14]
- Test I rating (% disease control) ([1]; wheat leaf rust): 99%
- Test C rating (% disease control) (Alternaria solani; tomato early blight): 0%
- Test J rating (% disease control) ([2]; wheat powdery mildew): 98%
- Test B rating (% disease control) (Botrytis cinerea; tomato Botrytis): 98%
- Test G rating (% disease control) (Septoria tritici): 99%
- Test F rating (% disease control) (Septoria nodorum): 0%

Compound: COc1ccc(-c2c(C)nn(C)c2Oc2ccc(Cl)cc2)c(F)c1 [compound 15]
- Test I rating (% disease control) ([1]; wheat leaf rust): 98%
- Test C rating (% disease control) (Alternaria solani; tomato early blight): 67%
- Test J rating (% disease control) ([2]; wheat powdery mildew): 99%
- Test B rating (% disease control) (Botrytis cinerea; tomato Botrytis): 99%
- Test G rating (% disease control) (Septoria tritici): 99%
- Test F rating (% disease control) (Septoria nodorum): 73%

Compound: COc1ccc(Oc2c(-c3ccc(F)cc3Cl)c(C)nn2C)c(F)c1 [compound 21]
- Test I rating (% disease control) ([1]; wheat leaf rust): 100%
- Test C rating (% disease control) (Alternaria solani; tomato early blight): 100%
- Test J rating (% disease control) ([2]; wheat powdery mildew): 99%
- Test B rating (% disease control) (Botrytis cinerea; tomato Botrytis): 98%
- Test F rating (% disease control) (Septoria nodorum): 97%

Compound: Cc1nn(C)c(Nc2ccc(Cl)c(Cl)c2)c1-c1c(F)cc(C#N)cc1F [compound 123]
- Test I rating (% disease control) ([1]; wheat leaf rust): 80%
- Test C rating (% disease control) (Alternaria solani; tomato early blight): 0%
- Test J rating (% disease control) ([2]; wheat powdery mildew): 0%
- Test B rating (% disease control) (Botrytis cinerea; tomato Botrytis): 99%
- Test G rating (% disease control) (Septoria tritici): 99%
- Test F rating (% disease control) (Septoria nodorum): 40%
